Experimental data: US11898114B2, “Reactions and methods for producing fuels” (Alliance for Sustainable Energy, LLC, priority 2020, dated 2024)
Where two headings read alike, the source gives them in different places. Marks after values point to notes of the source that are not given here.

How the values were obtained:
[1] = Lower heating value (ASTM D240-19); type: physicochemical; conditions: neat, measured
Description: (§1) Boiling point range of the target product was determined by a thermogravimetric analysis (TGA) based simulated distillation. Distillation temperatures were not determined via the standard method for diesel fuel, ASTM D86, due to the limited volume of sample available and gas chromatography based simulated distillation was not utilized given the relatively polar nature of POMEs. Analysis was conducted using a CAHN TG-131 TGA under flowing nitrogen with a ramp rate of 50° C./min from 25 to 550° C. The sample size was ca. 250 mg. The distillation parameters were selected to generate curves that closely matched ASTM D86 distillation values. […] Cloud point was measured using a Phase Technology Series 70X according to ASTM D5773; the method uncertainty is typically ±2.5° C. Flash point was measured according to ASTM D7094-17a with a method reproducibility stated as ±5.5° C. Indicated cetane number (ICN) was measured using an Advanced Fuel Ignition Delay Analyzer (AFIDA) instrument according to ASTM D8183-18 and where reproducibility is calculated as ±0.006407(ICN)^1.47. Higher heating value (HHV) and lower heating value (LHV) were determined according to ASTM D240-19 with a method reproducibility of ±0.4 MJ/kg.
(§2) Higher heating value (HHV) and lower heating value (LHV) were determined according to ASTM D240-19 with a method reproducibility of ±0.4 MJ/kg. […] Lubricity was measured using ASTM D6079-18. […]

[2] = Boiling point range (TGA-based simulated distillation); type: physicochemical; conditions: neat
Description: Boiling point range of the target product was determined by a thermogravimetric analysis (TGA) based simulated distillation. Distillation temperatures were not determined via the standard method for diesel fuel, ASTM D86, due to the limited volume of sample available and gas chromatography based simulated distillation was not utilized given the relatively polar nature of POMEs. Analysis was conducted using a CAHN TG-131 TGA under flowing nitrogen with a ramp rate of 50° C./min from 25 to 550° C. The sample size was ca. 250 mg. The distillation parameters were selected to generate curves that closely matched ASTM D86 distillation values. The results of this method were validated using a standard fuel oil designed for validating ASTM D86 (Accustandard). Cloud point was measured using a Phase Technology Series 70X according to ASTM D5773; the method uncertainty is typically ±2.5° C. Flash point was measured according to ASTM D7094-17a with a method reproducibility stated as ±5.5° C. Indicated cetane number (ICN) was measured using an Advanced Fuel Ignition Delay Analyzer (AFIDA) instrument according to ASTM D8183-18 and where reproducibility is calculated as ±0.006407(ICN)^1.47. Higher heating value (HHV) and lower heating value (LHV) were determined according to ASTM D240-19 with a method reproducibility of ±0.4 MJ/kg.

[3] = Flash point (ASTM D7094-17a neat; D6450-16a blends); type: physicochemical; conditions: measured
Description: as §1, §2

[4] = literature values (Fioroni, et al.; Lautenschütz, et al.; reported); cited from earlier work
[5] = Water solubility (extraction into water, TOC and GC-MS-FID); type: physicochemical; conditions: component of B*POME1-6 extracted into water, 1:5 water:B*POME1-6
Description: The aqueous layer was then analyzed by total organic carbon (TOC) to determine the amount of the fuel product that was extracted into water. […] The concentration of each component was approximated from the FID response to estimate both the total amount of fuel product and relative solubility of individual components. […] Aqueous phases were diluted 1:2 with methanol. An Agilent 8890 GC/FID—5977B MS system was used for analysis. A volume of 1.0 μL was injected into a split/splitless inlet set to 275° C. and a split ratio of 1:100. Compounds were separated using an Rtx-50 column (50% phenyl polydimethylsiloxane, Restek) of dimensions 30 m×0.25 mm×0.25 μm with a helium carrier gas at a flow rate of 1.0 mL/min. A post column splitter was used to divert column effluent simultaneously to FID and MS detectors for qualitative and quantitative analysis. The GC oven temperature was held at 40° C. for 2 minutes, then ramped to 140° C. at 7° C./min, followed by a ramp to 290° C. at 12° C./min and held for 10 minutes. The MS transfer line and FID temperatures were set to 350° C. The MS detector was operated in continuous scan mode from m/z 29 to 300. The FID response was calibrated using a standard of 2,5-dimethylfuran prepared gravimetrically in acetone.

[6] = literature values (Fioroni, et al.; Lautenschütz, et al.); cited from earlier work
[7] = literature values (Fioroni, et al.; Lautenschütz, et al.); cited from earlier work; remark: listed apart in the source

Compound	LHV [4]	Aqueous layer concentration of component [5]	other results
CCOCOCOCOCC [EE-POME3]	24^# MJ/kg		LHV [1]: 24 mJ/kg; Boiling point / boiling range [2]: 185 °C; Flash point [3]: 68 °C
COCOC [MM-POME1, methylal]	23^# MJ/kg		
CCCCOCOCOCOCOC [MB-POME4]		0.4 g/L	
CCCCOCOCOC [MB-POME2]		2.4 g/L	
CCCCOCOCOCOCOCOC [MB-POME5]		0.1 g/L	
CCOCOCOCOCOCC [EE-POME4]	23^# MJ/kg		
CCCCOCOCOCCCC [BB-POME2]		0.1 g/L	
COCOCOCOCOCOCOC [MM-POME6]		0.5 g/L	
CCCCOCOCOCOC [MB-POME3]		1.1 g/L	
COCOCOCOCOC [MM-POME4]		1.5 g/L	Flash point [6]: 88^# °C; Boiling point [7]: 202^# °C
COCOCOC [MM-POME2]		0.6 g/L	
CCOCOCC [EE-POME1]	29^# MJ/kg		
CCOCOCOCC [EE-POME2]	26^# MJ/kg		
COCOCOCOC [MM-POME3]			Flash point [6]: 54^# °C; Boiling point [7]: 156^# °C
CCO [ethanol]	26.8 mJ/kg		
COCOCOCOCOCOC [MM-POME5]	19^# MJ/kg	1.1 g/L	Flash point [6]: 115^# °C; Boiling point [7]: 242^# °C
CCCCOCOCCCC [BB-POME1, dibutoxymethane]		0.2 g/L	Boiling point / boiling range [2]: 179 °C; Flash point [3]: 62 °C; Flash point [6]: 62^$ °C; Boiling point [7]: 187^$ °C
